Values joined by “and” are separate entries in the source; they are usually repeats but may differ in a detail not shown here. Equal entries are not always repeated. Inconclusive results and toxic doses are left out.
Test system: L1210 leukemia ip in BDF1 mice, survival T/C
Assay: NCI In Vivo Anticancer Drug Screen. Data for tumor model L1210 Leukemia (intraperitoneal) in B6D2F1 (BDF1) mice
Conditions: endpoint: mean survival time, higher = longer survival
Method in brief: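 Tumor cells were implanted, animals were treated, and survival was followed. The result divides the treated measurement by the vehicle-control measurement.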

[1] = dose: 500.0 mg/kg/injection, schedule: Q01DX Z (ip), vehicle: carboxymethylcellulose (CMC)

Which T/C (dose: 7.5 mg/kg/injection, schedule: Q01DX Z (ip), vehicle: carboxymethylcellulose (CMC)) does the source give for `O=C(Nc1ccc(C2=NCCN2)cc1)Nc1cccc(NC(=O)Nc2ccc(C3=NCCN3)cc2)c1` here?
The T/C was 119 % of control.

What about the T/C (dose: 7.5 mg/kg/injection, schedule: Q#A X Z (ip), vehicle: carboxymethylcellulose (CMC)) of the same molecule?
The T/C was 180 % of control.

And the T/C (dose: 15.0 mg/kg/injection, schedule: Q01DX Z (ip), vehicle: carboxymethylcellulose (CMC))?
The T/C was 189 % of control.

What about the T/C (dose: 15.0 mg/kg/injection, schedule: Q#A X Z (ip), vehicle: carboxymethylcellulose (CMC)) of the same molecule?
The T/C was 215 % of control.

What about the T/C (dose: 22.5 mg/kg/injection, schedule: Q03DX Z (ip), vehicle: carboxymethylcellulose (CMC)) of the same molecule?
The T/C was 122 % of control.

And the T/C (dose: 30.0 mg/kg/injection, schedule: Q01DX Z (ip), vehicle: carboxymethylcellulose (CMC))?
The T/C was 206 % of control and 227 % of control and 315 % of control.

And the T/C (dose: 30.0 mg/kg/injection, schedule: Q01DX Z (sc), vehicle: carboxymethylcellulose (CMC))?
Its T/C is 101 % of control and 107 % of control.

What about the T/C (dose: 30.0 mg/kg/injection, schedule: Q#A X Z (ip), vehicle: carboxymethylcellulose (CMC)) of the same molecule?
Its T/C is 220 % of control.

What about the T/C (dose: 60.0 mg/kg/injection, schedule: Q01DX004 (im), vehicle: olive oil, sesame oil, peanut oil) of the same molecule?
Its T/C is 92 % of control.

What about the T/C (dose: 60.0 mg/kg/injection, schedule: Q01DX Z (ip), vehicle: carboxymethylcellulose (CMC)) of the same molecule?
Its T/C is 216 % of control and 255 % of control and 337 % of control.

What about the T/C (dose: 60.0 mg/kg/injection, schedule: Q01DX Z (sc), vehicle: carboxymethylcellulose (CMC)) of the same molecule?
Its T/C is 97 % of control and 102 % of control.

What about the T/C (dose: 60.0 mg/kg/injection, schedule: Q#A X Z (ip), vehicle: carboxymethylcellulose (CMC)) of the same molecule?
Its T/C is 234 % of control.

What about the T/C (dose: 62.5 mg/kg/injection, schedule: Q## X009 (oral), vehicle: saline) of the same molecule?
The T/C was 98 % of control.

What about the T/C (dose: 74.0 mg/kg/injection, schedule: Q01DX Z (ip), vehicle: carboxymethylcellulose (CMC)) of the same molecule?
The T/C was 280 % of control.

What about the T/C (dose: 90.0 mg/kg/injection, schedule: Q03DX Z (ip), vehicle: carboxymethylcellulose (CMC)) of the same molecule?
Its T/C is 227 % of control.

And the T/C (dose: 120.0 mg/kg/injection, schedule: Q01DX004 (im), vehicle: olive oil, sesame oil, peanut oil)?
The T/C was 102 % of control.

What about the T/C (dose: 120.0 mg/kg/injection, schedule: Q01DX Z (ip), vehicle: carboxymethylcellulose (CMC)) of the same molecule?
The T/C was 225 % of control and 234 % of control and 331 % of control.

And the T/C (dose: 120.0 mg/kg/injection, schedule: Q01DX Z (oral), vehicle: carboxymethylcellulose (CMC))?
Its T/C is 98 % of control.

And the T/C (dose: 120.0 mg/kg/injection, schedule: Q01DX Z (sc), vehicle: carboxymethylcellulose (CMC))?
The T/C was 101 % of control and 104 % of control.

And the T/C (dose: 120.0 mg/kg/injection, schedule: Q#A X Z (ip), vehicle: carboxymethylcellulose (CMC))?
The T/C was 218 % of control.

What about the T/C (dose: 125.0 mg/kg/injection, schedule: Q## X010 (oral), vehicle: saline) of the same molecule?
The T/C was 95 % of control.

And the T/C (dose: 148.0 mg/kg/injection, schedule: Q01DX Z (ip), vehicle: carboxymethylcellulose (CMC))?
Its T/C is 271 % of control.

And the T/C (dose: 180.0 mg/kg/injection, schedule: Q03DX Z (ip), vehicle: carboxymethylcellulose (CMC))?
Its T/C is 265 % of control.

And the T/C (dose: 210.0 mg/kg/injection, schedule: Q07DX Z (ip), vehicle: carboxymethylcellulose (CMC))?
Its T/C is 194 % of control.

What about the T/C (dose: 222.0 mg/kg/injection, schedule: Q01DX Z (ip), vehicle: carboxymethylcellulose (CMC)) of the same molecule?
The T/C was 204 % of control.

What about the T/C (dose: 240.0 mg/kg/injection, schedule: Q01DX004 (im), vehicle: olive oil, sesame oil, peanut oil) of the same molecule?
Its T/C is 101 % of control.

And the T/C (dose: 240.0 mg/kg/injection, schedule: Q01DX Z (ip), vehicle: carboxymethylcellulose (CMC))?
The T/C was 223 % of control and 260 % of control and 309 % of control.

And the T/C (dose: 240.0 mg/kg/injection, schedule: Q01DX Z (oral), vehicle: carboxymethylcellulose (CMC))?
Its T/C is 97 % of control.

What about the T/C (dose: 240.0 mg/kg/injection, schedule: Q01DX Z (sc), vehicle: carboxymethylcellulose (CMC)) of the same molecule?
Its T/C is 95 % of control and 105 % of control.

What about the T/C (dose: 240.0 mg/kg/injection, schedule: Q#A X Z (ip), vehicle: carboxymethylcellulose (CMC)) of the same molecule?
The T/C was 182 % of control.

And the T/C (dose: 250.0 mg/kg/injection, schedule: Q## X010 (oral), vehicle: saline)?
Its T/C is 102 % of control.

And the T/C (dose: 300.0 mg/kg/injection, schedule: Q01DX001 (ip), vehicle: carboxymethylcellulose (CMC))?
The T/C was 172 % of control.

And the T/C (dose: 333.0 mg/kg/injection, schedule: Q01DX Z (ip), vehicle: carboxymethylcellulose (CMC))?
Its T/C is 178 % of control.

What about the T/C (dose: 360.0 mg/kg/injection, schedule: Q03DX Z (ip), vehicle: carboxymethylcellulose (CMC)) of the same molecule?
Its T/C is 253 % of control.

And the T/C (dose: 420.0 mg/kg/injection, schedule: Q07DX Z (ip), vehicle: carboxymethylcellulose (CMC))?
Its T/C is 190 % of control.

What about the T/C (dose: 480.0 mg/kg/injection, schedule: Q01DX004 (im), vehicle: olive oil, sesame oil, peanut oil) of the same molecule?
The T/C was 106 % of control.

What about the T/C (dose: 480.0 mg/kg/injection, schedule: Q01DX Z (ip), vehicle: carboxymethylcellulose (CMC)) of the same molecule?
Its T/C is 177 % of control and 215 % of control.

What about the T/C (dose: 480.0 mg/kg/injection, schedule: Q01DX Z (oral), vehicle: carboxymethylcellulose (CMC)) of the same molecule?
Its T/C is 97 % of control.

What about the T/C (dose: 480.0 mg/kg/injection, schedule: Q01DX Z (sc), vehicle: carboxymethylcellulose (CMC)) of the same molecule?
Its T/C is 105 % of control and 108 % of control.

And the T/C [1]?
The T/C was 156 % of control.

What about the T/C (dose: 500.0 mg/kg/injection, schedule: Q## X009 (oral), vehicle: saline) of the same molecule?
Its T/C is 98 % of control.

What about the T/C (dose: 720.0 mg/kg/injection, schedule: Q03DX Z (ip), vehicle: carboxymethylcellulose (CMC)) of the same molecule?
The T/C was 252 % of control.

What about the T/C (dose: 840.0 mg/kg/injection, schedule: Q07DX Z (ip), vehicle: carboxymethylcellulose (CMC)) of the same molecule?
The T/C was 227 % of control.

And the T/C (dose: 960.0 mg/kg/injection, schedule: Q01DX Z (oral), vehicle: carboxymethylcellulose (CMC))?
Its T/C is 97 % of control.

And the T/C (dose: 1440.0 mg/kg/injection, schedule: Q03DX Z (ip), vehicle: carboxymethylcellulose (CMC))?
The T/C was 231 % of control.

And the T/C (dose: 1680.0 mg/kg/injection, schedule: Q07DX Z (ip), vehicle: carboxymethylcellulose (CMC))?
Its T/C is 239 % of control.

And the T/C (dose: 1920.0 mg/kg/injection, schedule: Q01DX Z (oral), vehicle: carboxymethylcellulose (CMC))?
The T/C was 98 % of control.

What about the T/C (dose: 3360.0 mg/kg/injection, schedule: Q07DX Z (ip), vehicle: carboxymethylcellulose (CMC)) of the same molecule?
Its T/C is 300 % of control.

`CC1(C)CN1CC1CO1` (configuration not stated) was tested. Which T/C (dose: 3.0 mg/kg/injection, schedule: Q01DX Z (ip), vehicle: saline) did it give?
The T/C was 120 % of control.

And the T/C (dose: 5.0 mg/kg/injection, schedule: Q01DX Z (ip), vehicle: saline)?
The T/C was 120 % of control.

And the T/C (dose: 7.0 mg/kg/injection, schedule: Q01DX Z (ip), vehicle: saline)?
Its T/C is 114 % of control and 118 % of control and 124 % of control.

And the T/C (dose: 11.0 mg/kg/injection, schedule: Q01DX Z (ip), vehicle: saline)?
Its T/C is 109 % of control.

Which T/C (dose: 100.0 mg/kg/injection, schedule: Q01DX009 (ip), vehicle: saline) does the source give for `O=S(=O)(O)c1cccc(S(=O)(=O)O)c1` here?
The T/C was 105 % of control.

What about the T/C (dose: 200.0 mg/kg/injection, schedule: Q01DX009 (ip), vehicle: saline) of the same molecule?
Its T/C is 103 % of control.

And the T/C (dose: 400.0 mg/kg/injection, schedule: Q01DX009 (ip), vehicle: saline)?
The T/C was 97 % of control.

Which T/C (dose: 100.0 mg/kg/injection, schedule: Q01DX001 (ip), vehicle: saline) does the source give for `O=C1CSC(=NCCN=C2NC(=O)CS2)N1` here?
The T/C was 104 % of control.

What about the T/C (dose: 200.0 mg/kg/injection, schedule: Q01DX001 (ip), vehicle: saline) of the same molecule?
Its T/C is 111 % of control.

And the T/C (dose: 400.0 mg/kg/injection, schedule: Q01DX001 (ip), vehicle: saline)?
Its T/C is 102 % of control.

Which results are given for `CCCCOCN(C(=O)CCl)c1c(CC)cccc1CC`?
T/C (dose: 100.0 mg/kg/injection, schedule: Q01DX009 (ip), vehicle: saline with Tween-80): 101 % of control; T/C (dose: 200.0 mg/kg/injection, schedule: Q01DX009 (ip), vehicle: saline with Tween-80): 110 % of control; T/C (dose: 400.0 mg/kg/injection, schedule: Q01DX009 (ip), vehicle: saline with Tween-80): 89 % of control

Which T/C (dose: 100.0 mg/kg/injection, schedule: Q01DX001 (ip), vehicle: carboxymethylcellulose (CMC)) does the source give for `CCCC(C)(O)C(C)(C)C` (configuration not stated) here?
Its T/C is 106 % of control.

And the T/C (dose: 200.0 mg/kg/injection, schedule: Q01DX001 (ip), vehicle: carboxymethylcellulose (CMC))?
The T/C was 106 % of control.

And the T/C (dose: 400.0 mg/kg/injection, schedule: Q01DX001 (ip), vehicle: carboxymethylcellulose (CMC))?
Its T/C is 90 % of control.

Which results are given for `O=C1CC2CCCCN2C2=C1CCCC2` (configuration not stated)?
T/C (dose: 25.0 mg/kg/injection, schedule: Q01DX009 (ip), vehicle: alcohol): 101 % of control; T/C (dose: 50.0 mg/kg/injection, schedule: Q01DX009 (ip), vehicle: alcohol): 98 % of control; T/C (dose: 100.0 mg/kg/injection, schedule: Q01DX009 (ip), vehicle: alcohol): 93 % of control

What does the source list for `[CH3][Sb]([CH3])([CH3])([O]C(=O)CBr)[O]C(=O)CBr`?
T/C (dose: 12.5 mg/kg/injection, schedule: Q04DX003 (ip), vehicle: saline with Tween-80): 102 % of control; T/C (dose: 25.0 mg/kg/injection, schedule: Q04DX003 (ip), vehicle: saline with Tween-80): 87 % of control; T/C (dose: 50.0 mg/kg/injection, schedule: Q04DX003 (ip), vehicle: saline with Tween-80): 91 % of control

`Cc1cc(O)c(O)c(S(=O)(=O)c2ccccc2)c1` was tested. Which T/C (dose: 87.5 mg/kg/injection, schedule: Q01DX009 (ip), vehicle: saline with Tween-80) did it give?
Its T/C is 94 % of control.

And the T/C (dose: 175.0 mg/kg/injection, schedule: Q01DX009 (ip), vehicle: saline with Tween-80)?
Its T/C is 96 % of control.

What about the T/C (dose: 350.0 mg/kg/injection, schedule: Q01DX009 (ip), vehicle: saline with Tween-80) of the same molecule?
The T/C was 100 % of control.

Which results are given for `CCN(CC)C(=O)c1cc(NC(=O)Nc2ccc(C3=NCCN3)cc2)cc(NC(=O)Nc2ccc(C3=NCCN3)cc2)c1`?
T/C (dose: 62.0 mg/kg/injection, schedule: Q01DX Z (ip), vehicle: carboxymethylcellulose (CMC)): 91 % of control; T/C (dose: 125.0 mg/kg/injection, schedule: Q01DX Z (ip), vehicle: carboxymethylcellulose (CMC)): 97 % of control; T/C (dose: 250.0 mg/kg/injection, schedule: Q01DX Z (ip), vehicle: carboxymethylcellulose (CMC)): 97 % of control; T/C [1]: 88 % of control

Reference: PubChem BioAssay AID248 (DTP/NCI, 2004)
